Reference: patent US20250304644A1, “PEPTIDES TRIPLE AGONISTS OF GIP, GLP-1 AND GLP-2” (BAINAN BIOTECH APS, priority 2021, published 2025)

Key:
Assay type in all cases: cell-based
human SNAP-tagged GIPR = target: T1, human SNAP-tagged GIPR (Homo sapiens, UniProt P48546); assay: Receptor internalization assay, HEK293A cells expressing human SNAP-tagged GIPR
T1 construct: host or cells: HEK293A
T1 sequence (P48546 22-466): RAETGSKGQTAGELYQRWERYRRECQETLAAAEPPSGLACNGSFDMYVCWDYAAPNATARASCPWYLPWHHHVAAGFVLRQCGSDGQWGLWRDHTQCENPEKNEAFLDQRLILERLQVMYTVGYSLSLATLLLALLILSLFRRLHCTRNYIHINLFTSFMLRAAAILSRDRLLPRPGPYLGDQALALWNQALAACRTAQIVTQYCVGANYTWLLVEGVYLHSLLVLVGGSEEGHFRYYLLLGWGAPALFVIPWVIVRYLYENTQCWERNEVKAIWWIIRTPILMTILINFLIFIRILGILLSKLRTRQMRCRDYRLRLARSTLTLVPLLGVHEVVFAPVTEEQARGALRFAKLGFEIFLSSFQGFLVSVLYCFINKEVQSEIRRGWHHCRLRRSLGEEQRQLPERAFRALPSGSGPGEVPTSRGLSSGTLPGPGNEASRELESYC

[1] = target: human glucagon receptor (GCGR) (Homo sapiens, UniProt P47871); assay: Gs activation measured as cAMP accumulation on human glucagon receptor (FIG. 1 radar plot); settings: read-out: −p Log EC50 on human glucagon receptor (GCGR) (converted)
Text: Here, the compounds 20, 21, 22, 28, 30, 31,32, 33, 34, 35 are shown in terms of their potencies in Gs activation, measured as CAMP accumulation, depicted in a radar plot. The numbers refer to −p Log EC50 values. […] The outer rings correspond to higher potencies, the inner rings correspond to lower potencies.

human SNP-tagged GLP-2R = target: T2, human SNP-tagged GLP-2R (Homo sapiens, UniProt O95838); assay: Receptor internalization assay, HEK293A cells expressing human SNAP-tagged GLP-2R; settings: for Absolute hGLP-2R internalization (AUC): AUC of sigmoid curves up to 1 μM, 60 minutes at 37° C.; for Relative hGLP-2R internalization (%): relative to native ligand = 100
T2 construct: expressed in transfected cells; host or cells: HEK293A
T2 sequence (O95838 1-553): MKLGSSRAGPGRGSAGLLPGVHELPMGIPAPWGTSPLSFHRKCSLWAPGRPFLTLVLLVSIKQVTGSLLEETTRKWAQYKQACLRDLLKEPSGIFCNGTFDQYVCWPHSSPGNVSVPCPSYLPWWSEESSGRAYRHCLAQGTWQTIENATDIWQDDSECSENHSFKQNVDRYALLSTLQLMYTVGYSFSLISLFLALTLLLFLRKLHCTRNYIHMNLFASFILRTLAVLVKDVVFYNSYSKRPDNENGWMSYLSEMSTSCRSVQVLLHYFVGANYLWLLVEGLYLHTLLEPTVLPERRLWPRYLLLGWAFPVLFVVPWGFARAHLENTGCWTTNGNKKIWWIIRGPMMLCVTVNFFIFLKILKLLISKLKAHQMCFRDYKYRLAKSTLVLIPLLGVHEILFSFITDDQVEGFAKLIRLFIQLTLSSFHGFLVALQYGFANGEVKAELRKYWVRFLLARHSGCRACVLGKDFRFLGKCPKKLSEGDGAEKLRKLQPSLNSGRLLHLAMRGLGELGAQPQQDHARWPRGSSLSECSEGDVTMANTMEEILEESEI

human SNAP-tagged GLP-1R = target: T3, human SNAP-tagged GLP-1R (Homo sapiens, UniProt P43220); assay: Receptor internalization assay, HEK293A cells expressing human SNAP-tagged GLP-1R; settings: for Absolute hGLP-1R internalization (AUC): AUC of sigmoid curves up to 1 μM, 60 minutes at 37° C.; for Relative hGLP-1R internalization (%): relative to hGLP-1 = 100
T3 construct: expressed in transfected cells; host or cells: HEK293A

human GIPR = target: T4, human GIPR (Homo sapiens, UniProt P48546); assay: cAMP assay (HitHunter) in transiently transfected COS-7 cells expressing human GIPR; settings: COS-7, read-out: Efficacy GIPR (Emax)
T4 construct: host or cells: COS-7
T4 sequence (P48546 22-466): T1 sequence (P48546 22-466)

human GLP-1R = target: T5, human GLP-1R (Homo sapiens, UniProt P43220); assay: cAMP assay (HitHunter) in transiently transfected COS-7 cells expressing human GLP-1R; settings: COS-7, read-out: Efficacy GLP-1R (Emax)
T5 construct: host or cells: COS-7

human GLP-2R = target: T6, human GLP-2R (Homo sapiens, UniProt O95838); assay: cAMP assay (HitHunter) in transiently transfected COS-7 cells expressing human GLP-2R; settings: COS-7, read-out: Efficacy GLP-2R (Emax)
T6 construct: host or cells: COS-7
T6 sequence (O95838 1-553): T2 sequence (O95838 1-553)

T3 sequence (P43220 24-463): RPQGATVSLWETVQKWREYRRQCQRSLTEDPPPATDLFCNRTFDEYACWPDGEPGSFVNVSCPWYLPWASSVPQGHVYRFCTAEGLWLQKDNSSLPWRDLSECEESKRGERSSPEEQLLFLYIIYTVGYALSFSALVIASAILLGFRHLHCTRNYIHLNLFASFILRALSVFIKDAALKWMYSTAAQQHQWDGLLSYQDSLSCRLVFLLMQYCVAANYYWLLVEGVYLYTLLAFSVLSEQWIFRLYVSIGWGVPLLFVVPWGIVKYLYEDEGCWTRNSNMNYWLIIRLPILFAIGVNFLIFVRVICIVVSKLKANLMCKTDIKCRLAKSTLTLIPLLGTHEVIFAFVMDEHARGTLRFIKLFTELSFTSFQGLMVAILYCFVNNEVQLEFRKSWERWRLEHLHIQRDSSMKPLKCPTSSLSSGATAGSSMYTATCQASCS
Sequence of human glucagon receptor (GCGR) (P47871 26-477): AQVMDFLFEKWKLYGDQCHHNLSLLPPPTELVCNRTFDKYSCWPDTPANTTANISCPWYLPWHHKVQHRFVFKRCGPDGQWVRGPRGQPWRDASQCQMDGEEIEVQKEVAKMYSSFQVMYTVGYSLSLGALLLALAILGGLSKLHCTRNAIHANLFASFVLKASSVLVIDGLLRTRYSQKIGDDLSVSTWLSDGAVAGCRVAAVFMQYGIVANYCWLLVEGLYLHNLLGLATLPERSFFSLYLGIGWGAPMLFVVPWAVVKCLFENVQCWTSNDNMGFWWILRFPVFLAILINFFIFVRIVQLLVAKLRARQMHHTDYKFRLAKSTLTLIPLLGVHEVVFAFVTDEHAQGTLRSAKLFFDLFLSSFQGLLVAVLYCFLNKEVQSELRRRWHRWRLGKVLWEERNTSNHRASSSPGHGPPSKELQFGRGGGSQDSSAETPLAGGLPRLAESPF
T5 sequence (P43220 24-463): as the sequence (P43220 24-463) above

Compound	Absolute hGIPR internalization (AUC) (human SNAP-tagged GIPR)	Relative hGIPR internalization (%) (human SNAP-tagged GIPR)	EC50 [1]	Absolute hGLP-2R internalization (AUC) (human SNP-tagged GLP-2R)	Relative hGLP-2R internalization (%) (human SNP-tagged GLP-2R)	Absolute hGLP-1R internalization (AUC) (human SNAP-tagged GLP-1R)	Relative hGLP-1R internalization (%) (human SNAP-tagged GLP-1R)	Emax (human GIPR)	Emax (human GLP-1R)	Emax (human GLP-2R)
CC[C@H](C)[C@H](NC(=O)[C@H](Cc1ccccc1)NC(=O)[C@H](CC(=O)O)NC(=O)[C@H](CCCNC(=N)N)NC(=O)[C@H](C)NC(=O)[C@H](C)NC(=O)[C@H](CC(C)C)NC(=O)[C@H](CCCCNC(=O)COCCOCCNC(=O)COCCOCCNC(=O)CC[C@H](NC(=O)CCCCCCCCCCCCCCCCC(=O)O)C(=O)O)NC(=O)[C@H](CC(=O)O)NC(=O)[C@H](CC(C)C)NC(=O)C(C)(C)NC(=O)[C@@H](NC(=O)[C@H](CO)NC(=O)[C@H](Cc1ccc(O)cc1)NC(=O)[C@H](CC(=O)O)NC(=O)[C@H](CO)NC(=O)[C@@H](NC(=O)[C@H](Cc1ccccc1)NC(=O)[C@@H](NC(=O)CNC(=O)[C@H](CC(=O)O)NC(=O)[C@H](C)NC(=O)[C@@H](N)Cc1c[nH]cn1)[C@@H](C)O)[C@@H](C)CC)[C@@H](C)O)C(=O)N[C@@H](CC(N)=O)C(=O)N[C@@H](Cc1c[nH]c2ccccc12)C(=O)N[C@@H](CC(C)C)C(=O)N[C@H](C(=O)N[C@@H](CCC(N)=O)C(=O)N[C@H](C(=O)N[C@@H](CCCCN)C(=O)NCC(=O)N[C@@H](CCCCN)C(=O)N[C@@H](CCCCN)C(=O)O)[C@@H](C)O)[C@@H](C)CC [Compound 31]	16.0	43%	> 100 nM	30.6	63.0%	4.9	5.8%	85%	89%	79%
CC[C@H](C)[C@H](NC(=O)[C@H](Cc1ccccc1)NC(=O)[C@H](CC(=O)O)NC(=O)[C@H](CCCNC(=N)N)NC(=O)[C@H](C)NC(=O)[C@H](C)NC(=O)[C@H](CC(C)C)NC(=O)[C@H](CCCCNC(=O)COCCOCCNC(=O)COCCOCCNC(=O)CC[C@H](NC(=O)CCCCCCCCCCCCCCCCC(=O)O)C(=O)O)NC(=O)[C@H](CC(=O)O)NC(=O)[C@H](CC(C)C)NC(=O)[C@@H](NC(=O)[C@@H](NC(=O)[C@H](CO)NC(=O)[C@H](Cc1ccc(O)cc1)NC(=O)[C@H](CC(=O)O)NC(=O)[C@H](CO)NC(=O)[C@@H](NC(=O)[C@H](Cc1ccccc1)NC(=O)[C@@H](NC(=O)CNC(=O)[C@H](CC(=O)O)NC(=O)[C@H](C)NC(=O)[C@@H](N)Cc1c[nH]cn1)[C@@H](C)O)[C@@H](C)CC)[C@@H](C)O)[C@@H](C)CC)C(=O)N[C@@H](CC(N)=O)C(=O)N[C@@H](Cc1c[nH]c2ccccc12)C(=O)N[C@@H](CC(C)C)C(=O)N[C@H](C(=O)N[C@@H](CCC(N)=O)C(=O)N[C@H](C(=O)N[C@@H](CCCCN)C(=O)NCC(=O)N[C@@H](CCCCN)C(=O)N[C@@H](CCCCN)C(=O)O)[C@@H](C)O)[C@@H](C)CC [Compound 30]	21.0	57%	> 100 nM	22.7	46.8%	7.3	8.6%	98%	93%	73%
